From patent US11753433B2, “Methods of synthesizing substituted purine compounds” (Epizyme, Inc., priority 2013, dated 2023)

Tests used:
Assay type in all cases: physicochemical
[1] = Dynamic vapor sorption (DVS) hygroscopicity; conditions: between 0% and 95% RH, 25° C.
Protocol: (peak temperature) which is accompanied by 5.9 wt % weight loss up to ˜150° C. in the TGA curve (FIG. 3). […] A solid is considered moderately hygroscopic when water uptake at 25° C./80% RH is between 2-15 wt % based on criteria of European Pharmacopeia. […] Form B of EP-1 trihydrate (x is 3) is a trihydrate as confirmed by single crystal analysis. The experimental XRPD pattern of Form B matches well with the simulated one from single crystal data (FIG. 6). This was also confirmed by DSC and TGA data (FIG. 7 and FIG. 8, respectively). DSC data indicates Form B dehydrates at ˜132° C. […] Form B is slightly hygroscopic as evidenced by a weight change of ˜0.3% between 0% and 95% RH (FIG. 9), (data collection was programmed from 95% RH-0% RH-95% RH at a step size of 10% RH at 25° C.).

Solution photostability = assay: Solution photostability
Protocol: Solution Photostability: Weighed ˜1 mg of Form B and dissolved in 3 solutions at different pHs (0.01 N HCl, 0.01 N NaOH and water). Methanol was added as a co-solvent to dissolve Form B in solutions (i.e., 10% (v/v) methanol in 0.01 N HCl, 20% (v/v) in water and 30% (v/v) in 0.01 N NaOH), the final concentration was 0.1 mg/mL. For each solution, 1 sample and 1 control covered in foil were put into the photo chamber for Vis study (2 vials total for each solution). Measure the concentration and monitor the degradation.

[2] = Solubility in Simulated Gastric Fluid (SGF) at 37° C.; conditions: for Resulting Solid: XRPD
Protocol: To study if Form A and Form B would perform differently in stomach, the solubilities of Form A and Form B were measured in Simulated Gastric Fluid (SGF, see below for SGF preparation) at 37° C. […] The remaining solids after each time point were subject to XRPD analysis. […] Weigh appropriate amount of hydrochloride (HCl) and sodium chloride (NaCl) into a 1-L flask followed by addition of 1-L deionized water. The mixture was stirred until all solids are dissolved. Check pH value with a pH-meter and adjust the pH to 1.8 with HCl (1N) or NaOH (1N).

[3] = Equilibrium solubility in organic solvents; conditions: RT; for solubility at 24 h: organic solvent or mixture, thermodynamic from solid
Protocol: Approximately 10 mg of Form B was weighed into a 1-ml glass vial followed by addition of 0.5 ml relevant media. Each sample was continuously stirred using a magnetic stir bar at 25° C. for 24 h. The suspension was then filtered using a nylon membrane with a pore diameter of 0.22 μm. The filtrates were diluted for HPLC analysis and final pH was measured. The solid residue of each sample was collected for XRPD analysis. The solubility of Form B was also determined in commonly used organic solvents (diluents or HPLC mobile phase). The solubility data summarized in Table 10 indicates Form B is quite soluble in MeOH, EtOH, and IPA.

[4] = 0.01N HCl Dark, Vis Stability (1.2 Mil lux-hours)
[5] = 0.01N HCl Dark, Vis-UV Stability (1.2 Mil lux-hours + 200 Watt-hours/m^2)
[6] = 0.01N HCl Light, Vis Stability (1.2 Mil lux-hours)
[7] = 0.01N HCl Light, Vis-UV Stability (1.2 Mil lux-hours + 200 Watt-hours/m^2)
[8] = 0.01N NaOH Dark, Vis Stability (1.2 Mil lux-hours)
[9] = 0.01N NaOH Dark, Vis-UV Stability (1.2 Mil lux-hours + 200 Watt-hours/m^2)
[10] = 0.01N NaOH Light, Vis Stability (1.2 Mil lux-hours), precipitation observed
[11] = 0.01N NaOH Light, Vis-UV Stability (1.2 Mil lux-hours + 200 Watt-hours/m^2), precipitation observed
[12] = H2O Dark, Vis Stability (1.2 Mil lux-hours)
[13] = H2O Dark, Vis-UV Stability (1.2 Mil lux-hours + 200 Watt-hours/m^2)
[14] = H2O Light, Vis Stability (1.2 Mil lux-hours)
[15] = H2O Light, Vis-UV Stability (1.2 Mil lux-hours + 200 Watt-hours/m^2)

weight change (DVS) [1]: ~0.3%
% area (Solution photostability; [4]): 99.4%
% claim (Solution photostability; [4]): 100.0%
Final pH (Solution photostability; [4]): 2.1
% area (Solution photostability; [5]): 99.9%
% claim (Solution photostability; [5]): 100.0%
Final pH (Solution photostability; [5]): 2.1
% area (Solution photostability; [6]): 98.5%
% claim (Solution photostability; [6]): 98.8%
Final pH (Solution photostability; [6]): 2.1
% area (Solution photostability; [7]): 99.9%
% claim (Solution photostability; [7]): 99.9%
Final pH (Solution photostability; [7]): 2.1
% area (Solution photostability; [8]): 99.7%
% claim (Solution photostability; [8]): 100.0%
Final pH (Solution photostability; [8]): 11.6
% area (Solution photostability; [9]): 100.0%
% claim (Solution photostability; [9]): 100.0%
Final pH (Solution photostability; [9]): 11.7
Final pH (Solution photostability; 0.01N NaOH Light, Vis Stability (1.2 Mil lux-hours)): 11.7
% area (Solution photostability; [10]): 99.6%
% claim (Solution photostability; [10]): 44.5%
Final pH (Solution photostability; 0.01N NaOH Light, Vis-UV Stability (1.2 Mil lux-hours + 200 Watt-hours/m^2)): 11.7
% area (Solution photostability; [11]): 99.3%
% claim (Solution photostability; [11]): 66.3%
% area (Solution photostability; [12]): 100.0%
% claim (Solution photostability; [12]): 100.0%
Final pH (Solution photostability; [12]): 7.7
% area (Solution photostability; [13]): 100.0%
% claim (Solution photostability; [13]): 100.0%
Final pH (Solution photostability; [13]): 8.1
% area (Solution photostability; [14]): 99.6%
% claim (Solution photostability; [14]): 98.5%
Final pH (Solution photostability; [14]): 7.3
% area (Solution photostability; [15]): 99.3%
% claim (Solution photostability; [15]): 94.7%
Final pH (Solution photostability; [15]): 7.3
observation in solution photostability study (Solution photostability; all solutions in 0.01N NaOH): Precipitation was observed
solution photostability (in words) (Solution photostability; in water and 0.01N HCl solution, UV/Vis exposure): stable upon exposure to UV/Vis
Final pH [2]: 5.3
Resulting Solid ([2]; 15 min): Type B
Resulting Solid ([2]; 30 min): Type B
Resulting Solid ([2]; 60 min): Type B
solubility at 15 min ([2]; Simulated Gastric Fluid (SGF), pH 1.8, simulated gastric fluid, thermodynamic from solid, 15 min, calculated using free base content): 5.4 mg/mL
solubility at 30 min ([2]; Simulated Gastric Fluid (SGF), pH 1.8, simulated gastric fluid, thermodynamic from solid, 30 min, calculated using free base content): 5.4 mg/mL
solubility at 60 min ([2]; Simulated Gastric Fluid (SGF), pH 1.8, simulated gastric fluid, thermodynamic from solid, 60 min, calculated using free base content): 5.6 mg/mL
Remaining Solid ([3]; Acetone): Form B
Remaining Solid ([3]; Acetonitrile): Form B
Remaining Solid ([3]; Ethanol): No solid obtained
Remaining Solid ([3]; Isopropanol): No solid obtained
solubility (in words) ([3]; MeOH, EtOH, and IPA): quite soluble
Remaining Solid ([3]; Methanol): No solid obtained
solubility at 24 h ([3]; Acetone): 23.9 mg/mL
solubility at 24 h ([3]; Acetonitrile): 1.5 mg/mL
solubility at 24 h ([3]; Ethanol): > 87 mg/mL
solubility at 24 h ([3]; Isopropanol): > 129 mg/mL
solubility at 24 h ([3]; Methanol): > 200 mg/mL
Compound: CC(C)N(C[C@H]1O[C@@H](n2cnc3c(N)ncnc32)[C@H](O)[C@@H]1O)[C@H]1C[C@@H](CCc2nc3cc(C(C)(C)C)ccc3[nH]2)C1 [Form B, (2R,3R,4S,5R)-2-(6-amino-9H-purin-9-yl)-5-((((1r,3S)-3-(2-(5-(tert-butyl)-1H-benzo[d]imidazol-2-yl)ethyl)cyclobutyl)(isopropyl)amino)methyl)tetrahydrofuran-3,4-diol trihydrate]
